Patent US20100048657A1, “CONTROL OF MALIGNANT CELLS PROLIFERATION THROUGH THE INHIBITION OF CASEIN KINASE 2” (CLEVELAND STATE UNIVERSITY, priority 2006, published 2010)

Assays:
Type in all cases: cell-based, human
[1] = system: platelets from MEG-01 cells; test: Activation and function of platelets produced by treated MEG-01 cultures (flow cytometry, clot SEM); details: for function of platelets obtained in culture: platelets released from treated MEG-01 cells
Description: Platelets were also separated from the megakaryocytic cells, by differential centrifugation (Zunino et al., 2001), considering the big size difference between these cells (1-5 μm for platelets and 35-150 μm for megakaryocytic cell line MEG-01) and analyzed separately. Suspension cells were centrifuged first at 100 g to 150 g for 15 minutes, and then the platelets-rich supernatant was kept and centrifuged again at 800 g for 15 minutes. The platelets pellet was resuspended in the appropriate buffer (Tyrode's buffer, pH 7.4), for analysis. For impeding artefactual aggregation of platelets in the control, EDTA and RGDS or RGD were added in the cell suspension from the beginning of the centrifugations. Therefore the control was the inactivated platelets. Special caution was used in order to avoid as much as possible artefactual activation of the control, therefore centrifugations were done at room temperature, no unnecessary washing, no vortexing, gentle removal of supernatants.
Monoclonal antibody PAC-1 recognizes an epitope on the glycoprotein αIIbβ3 of activated platelets. PAC-1 binds only to the activated platelets, and so is very specific. PAC-1 will not bind EDTA and RGD or RGDS treated platelets (Shattil et al., 1987; Shattil et al., 1985; Shattil and Leavitt, 2001).
10 mg/ml RGD or RGDS and 100 mM EDTA were used for negative control (inactivated) on resting platelets.
PAC-1-FITC was purchased from Becton Dickinson Immunocytometry Systems, San Jose, Calif., USA. 20 μl PAC-1-FITC were used for 5 μl fresh platelets suspension, in Tyrode's buffer with CaCl2, as recommended for whole blood by the provider. Different agonists were used, like 1 μg/ml TRAP, 100 nM PMA, as final concentrations (Chen et al., 2004). Activation time was 10-15 minutes.
BD Biosciences protocol for staining was used, with incubation for 30 minutes, in dark, at room temperature.
CD62P is a monoclonal antibody that recognizes an epitope on P-Selectin. P-Selectin is exposed as response to agonist and is a specific sign of platelet activation. 20 μl CD62P-FITC were used for 5 μl fresh platelets suspension, in Tyrode's buffer with CaCl2. Different agonists were used, like 1 μg/ml TRAP, 100 nM PMA or 20 μM ADP as final concentrations. Activation time was 10 minutes. The staining volume was chosen by titration, small volumes giving better staining. Incubation was done in dark at room temperature for 30 minutes, as recommended by BD Biosciences. These assays were done on fresh platelets.
Human fibrinogen was conjugated with Alexa Fluor 488 fluorochrome (F-13191, from Molecular Probes, OR, USA) following recommended Molecular Probes procedure, with the modification that instead the column step, a dialysis step was chosen, in order to obtain a better attachment of dye molecules to fibrinogen. Final concentration of fibrinogen conjugated Alexa Fluor 488 was determined spectrophotometrically. For platelet activation, different agonists were used, like 1 μg/ml TRAP, 100 nM PMA or 20 μM ADP as final concentrations. Activation time was 10-15 minutes. 300 nM labeled fibrinogen was incubated as a final concentration with platelets suspension for 30 minutes, in dark, at room temperature. Fresh platelets were used.
Platelets expose PS when activated and undergo shape change. They will stain positive for AnnexinV (a marker of PS exposure) and will move up on the SSC, FSC as a result of the shape change. For this assay, AnnexinV-FITC from BDBiosciences was used, as recommended by the manufacturer with the specification that the reaction volumes were decreased. Incubation was done in dark, at room temperature for 30 minutes, after activation for 10 minutes of platelets with agonist (like 1 μg/ml TRAP, 100 nM PMA or 20 μM ADP as final concentrations).
Cell preparation and pictures were done at the Microscopy Core Facility Cleveland Clinic. Cells were grown for 4 days with DMAT 10 μM and then collected by differential centrifugation. […]

[2] = system: αIIbβ3 integrin expression on MEG-01 cells; test: RPE-CD41a flow cytometric immunophenotyping (maturation)
Excerpt: CD41a is the antigen for αIIbβ3 complex and it is found on platelets and platelet precursors, including MEG-1 cell line (Ogura et al., 1985; Zunino et al., 2001). It acts as a receptor for fibrinogen, von Willebrand factor, fibronectin, and vitronectin, and it mediates platelet adhesion and aggregation. αIIbβ3 complex is a marker of differentiation for megakaryocytes (as an increase in the fluorescence of stained cells corresponds to more αIIbβ3 receptor expression and differentiation towards platelets production) and it is simply a marker for the platelets. CD41a is conjugated with R-Phytocoerthrin (RPE), in order to be used in flow cytometry experiments. The staining protocol provided by BD Biosciences was followed. Briefly, cells were washed and resuspended in 1×PBS with 0.1% FBS, 0.01% NaN3, and 0.22 μm filtered buffer. Cells were counted and adjusted to be 10^6 cells/ml and 20 μl of RPE-CD41a was used for 180 μl cell suspension.
RPE conjugated stained cells were collected on FL2H channel and gating on populations was done on FSC and SSC logarithmic modes. […]
Regarding FIGS. 16-20, maturation (differentiation) of MEG-01 cells is described. […] Control untreated unstained—plot A, control untreated stained—plot B, 10 μM DMAT—plot C, 25 μM TBB—plot D, 1 nM PMA treatments—plot E. FIG. 18 represents total percentage relative fluorescence for RPE-CD41a immunophenotyping. […]

[3] = system: fibrinogen receptor expression on MEG-01 cells; test: Fibrinogen-Alexa Fluor 488 binding to MEG-01 cells; details: 10 μM
Description: RPE conjugated stained cells were collected on FL2H channel and gating on populations was done on FSC and SSC logarithmic modes. The unstained control signal was subtracted from the stained cells signal, in order to measure the staining of the cells without background noise. Similar staining was done for Fibrinogen-Alexa Fluor 488 (300 nM). Cells were collected on FL1H channel and gating on the interest population was done on FSC and SSC logarithmic modes. Again, the unstained control signal was subtracted from the stained cells signal, in order to measure the staining of the cells without background noise.
Regarding FIGS. 16-20, maturation (differentiation) of MEG-01 cells is described. In FIG. 16, RPECD41a (αIIbβ3 expression) staining for DMAT treated cells (gate MEG-01) is depicted, with control untreated unstained—plot A, Control untreated stained (RPE-CD41a)—plot B, DMAT 10 μM—plot D, DMAT 15 μM—plot C, DMAT 20 μM—plot E. For FIG. 17, RPECD41a (αIIbβ3 expression) staining for DMAT, TBB and PMA (gate MEG-01) is shown. Control untreated unstained—plot A, control untreated stained—plot B, 10 μM DMAT—plot C, 25 μM TBB—plot D, 1 nM PMA treatments—plot E. FIG. 18 represents total percentage relative fluorescence for RPE-CD41a immunophenotyping. […]

MEG-01 cells = test: DNA content assay with PI and RNAase A; details: 10 μM, 4 days
[4] = platelets from 10 μM treatment, agonist TRAP

SMILES	function of platelets obtained in culture [1]	maturation level (RPE-CD41a, αIIbβ3 expression) ([2]; 10 μM)	maturation level (RPE-CD41a, αIIbβ3 expression) ([2]; 20 μM, compared with 10 μM)	fibrinogen-Alexa Fluor 488 binding to MEG-01 cells versus untreated controls [3]	platelet shape change ([1]; agonists: human thrombin, TRAP, ADP, PMA)	clot formation by platelets ([1]; platelets from 10 μM treatment, activated with 0.5 U/ml thrombin)	P-Selectin exposure of activated platelets [1, 4]	PAC-1 staining of activated platelets [1, 4]	fibrinogen binding of activated platelets [1, 4]	ploidy (DNA content) (MEG-01 cells)
Brc1c(Br)c(Br)c2[nH]nnc2c1Br [TBB, 4,5,6,7-tetrabromobenzotriazole]	functional	–	–	–	–	–	–	–	–	–
CN(C)c1nc2c(Br)c(Br)c(Br)c(Br)c2[nH]1 [DMAT, 2-dimethylamino-4,5,6,7-tetrabromo-1H-benzimidazole]	functional	very significant maturation levels versus control untreated	slight increase in the maturation level	bind significantly better fibrinogen-Alexa Fluor 488	capable of undergoing shape change in response to agonists	form a fibrin clot	expose P-Selectin	stain positive for PAC-1	bind fibrinogen	higher than 2N
